Patent US7537891B2, “Identification of polynucleotides for predicting activity of compounds that interact with and/or modulate protein tyrosine kinases and/or protein tyrosine kinase pathways in breast cells” (Bristol-Myers Squibb Company, priority 2002, dated 2009)

Columns and labels:
Assay in all cases: In vitro cytotoxicity assay (MTS)
Format in all cases: cell-based, human
Design in all cases: key to True Class: “S” represents Sensitive; “R” represents Resistant
[1] = test system: HCC1806 breast cell line
Experimental: (§1) The protein tyrosine kinase inhibitor compound (described in international application WO 00/62778, published Oct. 26, 2000) was tested for cytotoxicity in vitro against a panel of twenty-three human breast cell lines available from the American Type Culture Collection, ATCC, except H3396, which was obtained from Pacific Northwest Research Institute, Seattle Wash. The MCF7/Her2 cell line was established by stable transfection of MCF7 cells with the HER2 gene. Cytotoxicity was assessed in cells by the MTS (3-(4,5-dimethylthiazol-2-yl)-5-(3-carboxymethoxyphenyl)-2-(4-sulphenyl)-2H-tetrazolium, inner salt) assay (T. L. Riss et al., 1992, Mol. Biol. Cell, 3 (Suppl.):184a).
(§2) To carry out the assays, the breast cells were plated at 4,000 cells/well in 96 well microtiter plates, and 24 hours later, serially diluted drugs were added. The concentration range for the protein tyrosine kinase inhibitor compound BMS-A used in the cytotoxicity assay was from 5 μg/ml to 0.0016 μg/ml (roughly 10 μM to 0.0032 μM).
(§3) The cells were incubated at 37° C. for 72 hours at which time the tetrazolium dye, MTS (333 μg/ml final concentration), in combination with the electron coupling agent phenazine methosulfate (25 μM final concentration), was added. A dehydrogenase enzyme in live cells reduces the MTS to a form that absorbs light and can be quantified spectrophotometrically at 492 nM. The greater the absorbency the greater the number of live cells. The results are expressed as an IC50, which is the drug concentration required to inhibit cell proliferation (i.e. absorbance at 492 nm) to 50% of that of untreated control cells. The mean IC50 and standard deviation (SD) from multiple tests for each cell line were calculated.

[2] = test system: MDA-MB-435S breast cell line
Experimental: as §1, §2, §3

[3] = test system: HCC1954 breast cell line
Experimental: as §1, §2, §3

[4] = test system: MCF7/Her2 breast cell line
Experimental: as §1, §2, §3

[5] = test system: ZR-75-30 breast cell line
Experimental: as §1, §2, §3

[6] = test system: BT-474 breast cell line
Experimental: as §1, §2, §3

[7] = test system: MDA-MB-468 breast cell line
Experimental: as §1, §2, §3

[8] = test system: BT-549 breast cell line
Experimental: as §1, §2, §3

[9] = test system: BT-20 breast cell line
Experimental: as §1, §2, §3

[10] = test system: HS578T breast cell line
Experimental: as §1, §2, §3

[11] = 72 hours, mean of 2 to 5 determinations, read-out: mean IC50 (μM) to BMS-A
[12] = assigned as in Table 1, based on the IC50 results for BMS-A
[13] = resistance/sensitivity to BMS-A based on IC50

Cc1nc(Nc2ncc(C(=O)Nc3c(C)cccc3Cl)s2)cc(N2CCN(CCO)CC2)n1 [BMS-A]
IC50 [1, 11]: 0.219 µM | True Class [1, 12]: S | Classification [1, 13]: Sensitive (The cell lines with a log10(IC50) below the mean log10(IC50) were defined as sensitive to the compound) | IC50 ([2]; MDA-MB-435S, 72 hours, mean of 2 to 5 determinations, read-out: mean IC50 (μM) to BMS-A): 7.78 µM | Classification ([2]; MDA-MB-435S, resistance/sensitivity to BMS-A based on IC50): Resistant (those having a log10(IC50) above the mean log10(IC50) were considered to be resistant) | True Class ([2]; MDAMB435S, assigned as in Table 1, based on the IC50 results for BMS-A): R | IC50 [3, 11]: 0.0242 µM | True Class [3, 12]: S | Classification [3, 13]: Sensitive (The cell lines with a log10(IC50) below the mean log10(IC50) were defined as sensitive to the compound) | True Class ([4]; Her2MCF7, assigned as in Table 1, based on the IC50 results for BMS-A): R | IC50 ([4]; MCF7/Her2, 72 hours, mean of 2 to 5 determinations, read-out: mean IC50 (μM) to BMS-A): > 9.52 µM | Classification ([4]; MCF7/Her2, resistance/sensitivity to BMS-A based on IC50): Resistant (those having a log10(IC50) above the mean log10(IC50) were considered to be resistant) | IC50 ([5]; ZR-75-30, 72 hours, mean of 2 to 5 determinations, read-out: mean IC50 (μM) to BMS-A): 9.26 µM | Classification ([5]; ZR-75-30, resistance/sensitivity to BMS-A based on IC50): Resistant (those having a log10(IC50) above the mean log10(IC50) were considered to be resistant) | True Class ([5]; Zr-75-30, assigned as in Table 1, based on the IC50 results for BMS-A): R | True Class ([6]; BT474, assigned as in Table 1, based on the IC50 results for BMS-A): R | IC50 ([6]; BT-474, 72 hours, mean of 2 to 5 determinations, read-out: mean IC50 (μM) to BMS-A): 6.74 µM | Classification ([6]; BT-474, resistance/sensitivity to BMS-A based on IC50): Resistant (those having a log10(IC50) above the mean log10(IC50) were considered to be resistant) | IC50 ([7]; MDA-MB-468, 72 hours, mean of 2 to 5 determinations, read-out: mean IC50 (μM) to BMS-A): 7.13 µM | Classification ([7]; MDA-MB-468, resistance/sensitivity to BMS-A based on IC50): Resistant (those having a log10(IC50) above the mean log10(IC50) were considered to be resistant) | True Class ([7]; MDAMB468, assigned as in Table 1, based on the IC50 results for BMS-A): R | True Class ([8]; BT549, assigned as in Table 1, based on the IC50 results for BMS-A): R | IC50 ([8]; BT-549, 72 hours, mean of 2 to 5 determinations, read-out: mean IC50 (μM) to BMS-A): 9.06 µM | Classification ([8]; BT-549, resistance/sensitivity to BMS-A based on IC50): Resistant (those having a log10(IC50) above the mean log10(IC50) were considered to be resistant) | True Class ([9]; BT20, assigned as in Table 1, based on the IC50 results for BMS-A): S | IC50 ([9]; BT-20, 72 hours, mean of 2 to 5 determinations, read-out: mean IC50 (μM) to BMS-A): 0.165 µM | Classification ([9]; BT-20, resistance/sensitivity to BMS-A based on IC50): Sensitive (The cell lines with a log10(IC50) below the mean log10(IC50) were defined as sensitive to the compound) | IC50 ([10]; HS578T, 72 hours, mean of 2 to 5 determinations, read-out: mean IC50 (μM) to BMS-A): 0.647 µM | Classification ([10]; HS578T, resistance/sensitivity to BMS-A based on IC50): Sensitive (The cell lines with a log10(IC50) below the mean log10(IC50) were defined as sensitive to the compound) | True Class ([10]; Hs578T, assigned as in Table 1, based on the IC50 results for BMS-A): S
